Where two headings read alike, the source gives them in different places.
Biological target: T1, VAV1 (Homo sapiens, UniProt P15498+Q96SW2)
T1 construct: A heterozygous VAV1 C-terminal HiBiT knock-in pool was generated at Monte Rosa Therapeutics from a clonal Jurkat cell; endogenous in cells; host or cells: Jurkat clone stably expressing LgBiT, homozygous GSPT1-G575N; heterozygous VAV1-HiBiT knock-in pool
Experiment: VAV1 degradation activity, VAV1-HiBiT knock-in Jurkat luminescence assay (Example A, Table 1)
Type: cell-based
Conditions: VAV1-HiBiT knock-in Jurkat cells, luminescence read at 6 and 24 hours; for Dmax: Jurkat
How it was run: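 Luminescence was measured at 6 and 24 h after adding compound (10 μM stock) to VAV1-HiBiT knock-in Jurkat cells, which had been pre-incubated ~16 h at 37° C. in RPMI/10% FBS containing Endurazine. EC50 values came from control-normalised responses fitted to a 3-parameter logistic model with hillslope fixed at 1.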

[1] = read-out: VAV1 DC50 (nM), class

SMILES | Dmax (read-out: VAV1 Dmax %) [%] | Dmax (read-out: VAV1 Dmax %, class) [%] | DC50 (read-out: VAV1 DC50) [nM] | DC50 [1] [nM]
O=C1CCC(c2cccc(-c3ccc(CN4Cc5ncccc5C4=O)cc3)c2Cl)C(=O)N1 (stereo not shown) [Compound 298] | 95.4 | > 90 | 11.7 | ≤ 100
O=C1CCC(c2cccc(-c3ccc(CN4Cc5cccnc5C4=O)cc3)c2Cl)C(=O)N1 (stereo not shown) [Compound 299] | 91.6 | > 90 | 91.5 | ≤ 100
O=C1CCC(c2cccc(-c3ccc(CN4Cc5cnccc5C4=O)cc3)c2Cl)C(=O)N1 (stereo not shown) [Compound 300] | 94.3 | > 90 | 17.1 | ≤ 100
O=C1CCC(c2cccc(-c3ccc(CN4Cc5ccncc5C4=O)cc3)c2Cl)C(=O)N1 (stereo not shown) [Compound 301] | 86.2 | 60 to 90 | 71.2 | ≤ 100
O=C1CCC(c2cccc(-c3ccc(CN4CCOCC4=O)cc3)c2Cl)C(=O)N1 (stereo not shown) [Compound 302] | 78 | 60 to 90 | 92.1 | ≤ 100
C[C@@H]1CCC(=O)N1c1ccc(-c2cccc(C3CCC(=O)NC3=O)c2Cl)cc1 (stereo partly shown) [Compound 303] | 93.5 | > 90 | 13.9 | ≤ 100
CC1CCN(c2ccc(-c3cccc(C4CCC(=O)NC4=O)c3Cl)cc2)C1=O (stereo not shown) [Compound 304] | 72 | 60 to 90 | 274 | 100 to 1000
O=C1CCC(c2cccc(-c3ccc(N4C(=O)OCCC4C(F)(F)F)cc3)c2Cl)C(=O)N1 (stereo not shown) [Compound 305] | 93 | > 90 | 19.6 | ≤ 100
O=C1CCC(c2cccc(-c3ccc(N4CC(C(F)(F)F)OCC4=O)cc3)c2Cl)C(=O)N1 (stereo not shown) [Compound 306] | 89.1 | 60 to 90 | 49.2 | ≤ 100
O=C1CCC(c2cccc(-c3ccc(N4CC5CC5CC4=O)cc3)c2Cl)C(=O)N1 (stereo not shown) [Compound 307] | 96 | > 90 | 9.64 | ≤ 100
O=C1CCC(c2cccc(-c3ccc(N4CCN5CCCC5C4=O)cc3)c2Cl)C(=O)N1 (stereo not shown) [Compound 308] | 93.8 | > 90 | 22.5 | ≤ 100
O=C1CCC(c2cccc(-c3ccc(N4CCn5ccnc5C4=O)cc3)c2Cl)C(=O)N1 (stereo not shown) [Compound 309] | 89.6 | 60 to 90 | 39.4 | ≤ 100
O=C1CCC(c2cccc(-c3ccc(N4CCC5(COC5)CC4=O)cc3)c2Cl)C(=O)N1 (stereo not shown) [Compound 310] | 90.5 | > 90 | 23 | ≤ 100
CC1(C)CN(c2ccc(-c3cccc(C4CCC(=O)NC4=O)c3Cl)cc2)C(=O)CO1 (stereo not shown) [Compound 311] | 92.7 | > 90 | 21.9 | ≤ 100
O=C1CCC(c2cccc(-c3ccc(N4CCC5CC5C4=O)cc3)c2Cl)C(=O)N1 (stereo not shown) [Compound 312] | 96.1 | > 90 | 7.99 | ≤ 100
Cn1ncc2c1CCN(c1ccc(-c3cccc(C4CCC(=O)NC4=O)c3Cl)cc1)C2=O (stereo not shown) [Compound 313] | 95.3 | > 90 | 7.02 | ≤ 100
CC1CCC(=O)N(c2ccc(-c3cccc(C4CCC(=O)NC4=O)c3Cl)cc2)C1 (stereo not shown) [Compound 314] | 96.1 | > 90 | 9.68 | ≤ 100
O=C1CCC(c2cccc(-c3ccc(N4CCn5cncc5C4=O)cc3)c2Cl)C(=O)N1 (stereo not shown) [Compound 315] | 89.8 | 60 to 90 | 22 | ≤ 100
Cn1ncc2c1CCC(=O)N2c1ccc(-c2cccc(C3CCC(=O)NC3=O)c2Cl)cc1 (stereo not shown) [Compound 316] | 93.3 | > 90 | 11.8 | ≤ 100

SMILES | Dmax (read-out: VAV1 Dmax %) [%] | Dmax (read-out: VAV1 Dmax %, class) [%] | DC50 (read-out: VAV1 DC50) [nM] | DC50 [1] [nM]
CN1CC(=O)N(c2ccc(-c3cccc(C4CCC(=O)NC4=O)c3Cl)cc2)CC1(C)C (stereo not shown) [Compound 317] | 93.2 | > 90 | 13.6 | ≤ 100
COC1CCCC(=O)N1c1ccc(-c2cccc(C3CCC(=O)NC3=O)c2Cl)cc1 (stereo not shown) [Compound 318] | 97.2 | > 90 | 5.24 | ≤ 100
O=C1CCC(c2cccc(-c3ccc(N4CC5CC5C4=O)cc3)c2Cl)C(=O)N1 (stereo not shown) [Compound 319] | 80.8 | 60 to 90 | 104 | 100 to 1000
O=C1CCC(c2cccc(-c3ccc(N4CCOC(F)(F)C4=O)cc3)c2Cl)C(=O)N1 (stereo not shown) [Compound 320] | 84.9 | 60 to 90 | 102 | 100 to 1000
O=C1CCC(c2cccc(-c3ccc(N4CCn5nccc5C4=O)cc3)c2Cl)C(=O)N1 (stereo not shown) [Compound 321] | 88.1 | 60 to 90 | 22.5 | ≤ 100
O=C1CCC(c2cccc(-c3ccc(N4CCCC(F)(F)C4=O)cc3)c2Cl)C(=O)N1 (stereo not shown) [Compound 322] | 93.9 | > 90 | 17.7 | ≤ 100
O=C1CCC(c2cccc(-c3ccc(N4CCCC(F)C4=O)cc3)c2Cl)C(=O)N1 (stereo not shown) [Compound 323] | 95 | > 90 | 10.6 | ≤ 100
O=C1CCC(c2cccc(-c3ccc(N4C(=O)COCC45CC5)cc3)c2Cl)C(=O)N1 (stereo not shown) [Compound 324] | 97.8 | > 90 | 3.46 | ≤ 100
C[C@H]1COCC(=O)N1c1ccc(-c2cccc(C3CCC(=O)NC3=O)c2Cl)cc1 (stereo partly shown) [Compound 325] | 96.2 | > 90 | 6.66 | ≤ 100
CN1CC(=O)N(c2ccc(-c3cccc(C4CCC(=O)NC4=O)c3Cl)cc2)c2cncnc21 (stereo not shown) [Compound 326] | 90.9 | > 90 | 16.2 | ≤ 100
O=C1CCC(c2cccc(-c3ccc(N4C(=O)C[C@@H]5CCC[C@@H]54)cc3)c2Cl)C(=O)N1 (stereo partly shown) [Compound 327] | 89.3 | 60 to 90 | 30.1 | ≤ 100
O=C1CCC(c2cccc(-c3ccc(N4Cc5nccn5CC4=O)cc3)c2Cl)C(=O)N1 (stereo not shown) [Compound 328] | 90.8 | > 90 | 15 | ≤ 100
CC1CCCN(c2ccc(-c3cccc(C4CCC(=O)NC4=O)c3Cl)cc2)C1=O (stereo not shown) [Compound 329] | 95.8 | > 90 | 6.62 | ≤ 100
O=C1CCC(c2cccc(-c3ccc(N4C(=O)CCn5nccc54)cc3)c2Cl)C(=O)N1 (stereo not shown) [Compound 330] | 72.1 | 60 to 90 | 130 | 100 to 1000
CN1CCN(c2ccc(-c3cccc(C4CCC(=O)NC4=O)c3Cl)cc2)C(=O)C1 (stereo not shown) [Compound 331] | 91.6 | > 90 | 17.2 | ≤ 100
CC1CCN(c2ccc(-c3cccc(C4CCC(=O)NC4=O)c3Cl)cc2)C(=O)C1 (stereo not shown) [Compound 332] | 95.5 | > 90 | 10.6 | ≤ 100
Cc1nn(C)c2c1N(c1ccc(-c3cccc(C4CCC(=O)NC4=O)c3Cl)cc1)C(=O)CO2 (stereo not shown) [Compound 333] | 98.2 | > 90 | 3.17 | ≤ 100
CN1CC(=O)N(c2ccc(-c3cccc(C4CCC(=O)NC4=O)c3Cl)cc2)c2cnccc21 (stereo not shown) [Compound 334] | 93.5 | > 90 | 11.1 | ≤ 100

Reference: patent US12257247B2 (Monte Rosa Therapeutics AG, priority 2023, dated 2025)
